Assay results reported in US4795639A, “Potentiating formulations” (priority 1971, dated 1989).

Assays:
[1] = system: Pseudomonas aeruginosa; experiment: zone inhibition, pteridine in agar, drugs in well; type: cell-based; settings: for complete zone inhibition, SMX (300) / zone including partial inhibition, SMX (300): SMX 300 μg/ml; for zone including partial inhibition, TMP (30): TMP 30 μg/ml; for complete zone inhibition, TMP + SMX (5) (100) / zone including partial inhibition, TMP + SMX (5) (100): TMP 5 + SMX 100 μg/ml
Description: (§1) The pteridine was included in a soya peptone medium of low thymidine content (Wellcotest Sensitivity Test Agar) contained in a Petri-dish and the other component(s) added to the well resulting from the removal of a small plug from the medium. The surface of the medium was inoculated with the test organism and then incubated.

[2] = system: Staphylococcus aureus; experiment: zone inhibition, pteridine in agar, drugs in well; type: cell-based; settings: for complete zone inhibition, SMX (300) / zone including partial inhibition, SMX (300): SMX 300 μg/ml; for complete zone inhibition, TMP + SMX (5) (100) / zone including partial inhibition, TMP + SMX (5) (100): TMP 5 + SMX 100 μg/ml
Description: as §1

[3] = pteridine 3 μg/ml, TMP 30 μg/ml
[4] = pteridine 10 μg/ml, TMP 30 μg/ml

CCC1(CC)Nc2nc(N)nc(O)c2N=C1CO [R = CH2 OH R = R^2 = Et, 2-amino-4-hydroxy-6-hydroxymethyl-7,7-diethyl-7,8-dihydropteridine]
complete zone inhibition, SMX (300) ([1]; pteridine 3 μg/ml): 9.0 centimeters
zone including partial inhibition, SMX (300) ([1]; pteridine 3 μg/ml): 13.0 centimeters
zone including partial inhibition, TMP (30) ([1]; pteridine 3 μg/ml): 3.0 centimeters
complete zone inhibition, TMP + SMX (5) (100) ([1]; pteridine 3 μg/ml): 7.0 centimeters
zone including partial inhibition, TMP + SMX (5) (100) ([1]; pteridine 3 μg/ml): 10.0 centimeters
complete zone inhibition, SMX (300) ([1]; pteridine 10 μg/ml): 13 centimeters
zone including partial inhibition, SMX (300) ([1]; pteridine 10 μg/ml): 16.0 centimeters
zone including partial inhibition, TMP (30) ([1]; pteridine 10 μg/ml): 5.0 centimeters
complete zone inhibition, TMP + SMX (5) (100) ([1]; pteridine 10 μg/ml): 8.0 centimeters
zone including partial inhibition, TMP + SMX (5) (100) ([1]; pteridine 10 μg/ml): 12.0 centimeters
synergism with TMP and SMX against Staphylococcus aureus ([2]; compared with DMHP): slightly more active than DMHP
complete zone inhibition, SMX (300) ([2]; pteridine 3 μg/ml): 6.5 centimeters
zone including partial inhibition, SMX (300) ([2]; pteridine 3 μg/ml): 12.5 centimeters
complete zone inhibition, TMP (30) [2, 3]: 8.5 centimeters
zone including partial inhibition, TMP (30) [2, 3]: 10.5 centimeters
complete zone inhibition, TMP + SMX (5) (100) ([2]; pteridine 3 μg/ml): 10.5 centimeters
zone including partial inhibition, TMP + SMX (5) (100) ([2]; pteridine 3 μg/ml): 12.5 centimeters
complete zone inhibition, SMX (300) ([2]; pteridine 10 μg/ml): 10.5 centimeters
zone including partial inhibition, SMX (300) ([2]; pteridine 10 μg/ml): 14.0 centimeters
complete zone inhibition, TMP (30) [2, 4]: 10.5 centimeters
zone including partial inhibition, TMP (30) [2, 4]: 13.0 centimeters
complete zone inhibition, TMP + SMX (5) (100) ([2]; pteridine 10 μg/ml): 11.0 centimeters
zone including partial inhibition, TMP + SMX (5) (100) ([2]; pteridine 10 μg/ml): 14.5 centimeters
complete zone inhibition, TMP (30) ([2]; pteridine 30 μg/ml in medium, TMP 30 μg/ml in well, about 6× magnification): 12.5 centimeters
complete zone inhibition, SMX (300) ([2]; pteridine 30 μg/ml): 12.5 centimeters
zone including partial inhibition, SMX (300) ([2]; pteridine 30 μg/ml): 17.0 centimeters
zone including partial inhibition, TMP (30) ([2]; pteridine 30 μg/ml, TMP 30 μg/ml): 17.0 centimeters
complete zone inhibition, TMP + SMX (5) (100) ([2]; pteridine 30 μg/ml): 12.5 centimeters
zone including partial inhibition, TMP + SMX (5) (100) ([2]; pteridine 30 μg/ml): 17.0 centimeters
